Values of other authors, collected in US20110159092A1 (MICRO LABS LIMITED, priority 2009, published 2011).

Tests used:
bacteria = details: background statement
staphylococci = details: against staphylococci
streptococci = details: majority of strains
enterococci = details: against enterococci

Compound: CC(=O)NC[C@H]1CN(c2ccc(N3CCOCC3)c(F)c2)C(=O)O1 [Linezolid, (S)-N-({3-[3-fluoro-4-(morpholin-4-yl)phenyl]-2-oxo-1,3-oxazolidin-5-yl}methyl)acetamide]
- MIC (bacteria): 1 to 4 µg/mL
- time-kill result (staphylococci): bacteriostatic
- time-kill result (streptococci): bactericidal
- time-kill result (enterococci): bacteriostatic
